Results taken from the supplement of paper PMC8253809.

What was measured:
[1] = system: SUDIPGVI (diffuse intrinsic pontine glioma line); test: maximal growth inhibition (yFin) relative to DMSO / staurosporine; higher = more efficacious
Method in brief: (§1)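 Compounds were delivered by pin tool as a 10-point threefold dilution series with a mean top concentration of 35 μM, in triplicate, to patient-derived pHGG/DIPG cell lines and astrocyte controls growing on 1% Geltrex-coated 384-well plates. Incubation lasted 7 days, or 3 days for iAstro, at 37 °C with 5% CO2. EC50 and maximal response (yFin) come from the three- or four-parameter log-logistic fit with the lowest AICc, applied to pooled, log2-transformed CellTiter-Glo luminescence normalised per plate to % activity between solvent (negative) and positive control wells.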

[2] = system: HGGX6 (H3.3 G34R paediatric high-grade glioma line); test: as above
Method in brief: as §1

[3] = system: SUDIPGXVII (diffuse intrinsic pontine glioma line); test: as above
Method in brief: as §1

[4] = system: SUDIPGXIII (diffuse intrinsic pontine glioma line); test: as above
Method in brief: as §1

[5] = system: HGGX42 (H3.3 G34R paediatric high-grade glioma line); test: as above
Method in brief: as §1

[6] = system: DIPGX29 (H3.3 K27M diffuse intrinsic pontine glioma line); test: area under dose-response curve of % growth inhibition (log2 RLU vs DMSO / staurosporine), 1e-11 to 1e-4 M (% x log10 M); higher = more growth inhibition
Method in brief: (§2)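 Area under the curve was derived with the trapezoid rule from a fitted log-logistic curve, switching to a smoothing spline if the sigmoid fit failed. It rested on per-plate % activity between solvent and positive controls, calculated from log2-transformed CellTiter-Glo luminescence after 7 days of exposure (3 days for iAstro) at 37 °C, 5% CO2. Patient-derived pHGG/DIPG lines and astrocytes on 1% Geltrex-coated 384-well plates received a 10-point threefold dilution series, mean top concentration 35 μM, in triplicate.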

[7] = system: HGGX2 (paediatric high-grade glioma line); test: as above
Method in brief: as §2

[8] = system: SUDIPGIV (diffuse intrinsic pontine glioma line); test: as above
Method in brief: as §2

[9] = system: DIPGX37 (H3.3 K27M diffuse intrinsic pontine glioma line); test: as above
Method in brief: as §2

[10] = system: DIPGX7 (H3.3 K27M diffuse intrinsic pontine glioma line); test: as above
Method in brief: as §2

[11] = system: SUDIPGXIX (diffuse intrinsic pontine glioma line); test: as above
Method in brief: as §2

[12] = system: DIPGX9 (diffuse intrinsic pontine glioma line); test: as above
Method in brief: as §2

[13] = system: SUDIPGVI; test: as above
Method in brief: as §2

[14] = system: HGGX6; test: as above
Method in brief: as §2

[15] = system: HABS (astrocyte control); test: as above
Method in brief: as §2

[16] = system: SUDIPGXVII; test: as above
Method in brief: as §2

[17] = system: SUDIPGXIII; test: as above
Method in brief: as §2

[18] = system: HGGX42; test: as above
Method in brief: as §2

[19] = system: HGGX39 (paediatric high-grade glioma line); test: as above
Method in brief: as §2

[20] = system: iAstro (astrocyte control); test: as above
Method in brief: as §2

[21] = system: SUDIPGXXI (diffuse intrinsic pontine glioma line); test: as above
Method in brief: as §2

[22] = system: SUDIPGVI; test: EC50 (inflection of fitted growth-inhibition curve) (log10 M)
Method in brief: as §1

[23] = system: HGGX6; test: as above
Method in brief: as §1

[24] = system: SUDIPGXVII; test: as above
Method in brief: as §1

[25] = system: SUDIPGXIII; test: as above
Method in brief: as §1

[26] = system: HGGX42; test: as above
Method in brief: as §1

[27] = system: DIPGX29; test: maximal growth inhibition (yFin) relative to DMSO / staurosporine; higher = more efficacious
Method in brief: as §1

[28] = system: HGGX2; test: as above
Method in brief: as §1

[29] = system: SUDIPGIV; test: as above
Method in brief: as §1

[30] = system: DIPGX37; test: as above
Method in brief: as §1

[31] = system: DIPGX7; test: as above
Method in brief: as §1

[32] = system: SUDIPGXIX; test: as above
Method in brief: as §1

[33] = system: HABS; test: as above
Method in brief: as §1

[34] = system: HGGX39; test: as above
Method in brief: as §1

[35] = system: iAstro; test: as above
Method in brief: as §1

[36] = system: DIPGX29; test: EC50 (inflection of fitted growth-inhibition curve) (log10 M)
Method in brief: as §1

[37] = system: HGGX2; test: as above
Method in brief: as §1

[38] = system: SUDIPGIV; test: as above
Method in brief: as §1

[39] = system: DIPGX37; test: as above
Method in brief: as §1

[40] = system: DIPGX7; test: as above
Method in brief: as §1

[41] = system: SUDIPGXIX; test: as above
Method in brief: as §1

[42] = system: HABS; test: as above
Method in brief: as §1

[43] = system: HGGX39; test: as above
Method in brief: as §1

[44] = system: iAstro; test: as above
Method in brief: as §1

CS[C@H]1SC[C@H]2C(=O)N(C)[C@@H](C(C)C)C(=O)OC[C@@H](NC(=O)c3cnc4ccccc4n3)C(=O)N[C@@H](C)C(=O)N(C)[C@@H]1C(=O)N(C)[C@@H](C(C)C)C(=O)OC[C@@H](NC(=O)c1cnc3ccccc3n1)C(=O)N[C@@H](C)C(=O)N2C [ECHINOMYCIN]
maximal growth inhibition [1]: 71%
maximal growth inhibition [2]: 75.4%
maximal growth inhibition [3]: 96.4%
maximal growth inhibition [4]: 70.4%
maximal growth inhibition [5]: 76.3%
area under dose-response curve [6]: 489
area under dose-response curve [7]: 383
area under dose-response curve [8]: 505
area under dose-response curve [9]: 508
area under dose-response curve [10]: 488
area under dose-response curve [11]: 520
area under dose-response curve [12]: 510
area under dose-response curve [13]: 399
area under dose-response curve [14]: 337
area under dose-response curve [15]: 371
area under dose-response curve [16]: 425
area under dose-response curve [17]: 335
area under dose-response curve [18]: 432
area under dose-response curve [19]: 507
area under dose-response curve [20]: 139
area under dose-response curve [21]: 577
EC50 (log10 M) [22]: -10.8
EC50 (log10 M) [23]: -8.49
EC50 (log10 M) [24]: -8.81
EC50 (log10 M) [25]: -8.75
EC50 (log10 M) [26]: < -11

CO[C@H]1C[C@@H]2CC[C@@H](C)[C@@](O)(O2)C(=O)C(=O)N2CCCC[C@H]2C(=O)O[C@H]([C@H](C)C[C@@H]2CC[C@@H](OCCO)[C@H](OC)C2)CC(=O)[C@H](C)/C=C(\C)[C@@H](O)[C@@H](OC)C(=O)[C@H](C)C[C@H](C)/C=C/C=C/C=C/1C [EVEROLIMUS]
maximal growth inhibition [27]: 107%
maximal growth inhibition [28]: 94.8%
maximal growth inhibition [29]: 87.7%
maximal growth inhibition [30]: 100%
maximal growth inhibition [31]: 98.8%
maximal growth inhibition [32]: 90.9%
maximal growth inhibition [2]: 50%
maximal growth inhibition [33]: 86.6%
maximal growth inhibition [3]: 73.8%
maximal growth inhibition [4]: 85.2%
maximal growth inhibition [5]: 95.7%
maximal growth inhibition [34]: 97.2%
maximal growth inhibition [35]: 85%
area under dose-response curve [6]: 95.9
area under dose-response curve [7]: 78.5
area under dose-response curve [8]: 97.4
area under dose-response curve [9]: 103
area under dose-response curve [10]: 75.4
area under dose-response curve [11]: 72
area under dose-response curve [12]: 149
area under dose-response curve [13]: 113
area under dose-response curve [14]: 62.9
area under dose-response curve [15]: 54.8
area under dose-response curve [16]: 74.4
area under dose-response curve [17]: 92.4
area under dose-response curve [18]: 107
area under dose-response curve [19]: 99.1
area under dose-response curve [20]: 96.6
area under dose-response curve [21]: 203
EC50 (log10 M) [36]: -4.57
EC50 (log10 M) [37]: -4.67
EC50 (log10 M) [38]: -4.85
EC50 (log10 M) [39]: -4.6
EC50 (log10 M) [40]: -4.76
EC50 (log10 M) [41]: -4.79
EC50 (log10 M) [23]: -4.78
EC50 (log10 M) [42]: -4.63
EC50 (log10 M) [24]: -4.83
EC50 (log10 M) [25]: -4.77
EC50 (log10 M) [26]: -4.78
EC50 (log10 M) [43]: -4.56
EC50 (log10 M) [44]: -4.83
